Data reported in patent US20210228523A1, “MODULATORS OF SESTRIN-GATOR2 INTERACTION AND USES THEREOF” (Navitor Pharmaceuticals, Inc., priority 2017, published 2021).

Target: T1, GATOR2/Sestrin2 complexes (Homo sapiens, UniProt P58004)
T1 construct: endogenous in cells; host or cells: HEK293T cells stably expressing FLAG-WDR24 (lentiviral, pLJM60)
T1 sequence (P58004 1-480): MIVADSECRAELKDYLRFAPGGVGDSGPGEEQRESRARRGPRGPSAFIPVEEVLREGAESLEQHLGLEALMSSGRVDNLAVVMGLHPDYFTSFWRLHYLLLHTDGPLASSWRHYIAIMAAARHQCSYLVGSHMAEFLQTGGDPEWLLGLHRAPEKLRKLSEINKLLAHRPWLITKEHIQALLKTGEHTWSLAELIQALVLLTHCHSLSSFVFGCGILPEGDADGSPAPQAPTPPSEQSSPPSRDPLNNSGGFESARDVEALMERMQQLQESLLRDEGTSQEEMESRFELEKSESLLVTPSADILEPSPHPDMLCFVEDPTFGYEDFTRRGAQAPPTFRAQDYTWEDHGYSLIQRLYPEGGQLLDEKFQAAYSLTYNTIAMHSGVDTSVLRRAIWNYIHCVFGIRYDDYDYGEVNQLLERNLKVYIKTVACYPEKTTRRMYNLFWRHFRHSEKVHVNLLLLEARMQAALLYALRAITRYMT
Assay: In vitro PPI assay (Method 1; Western blot assay): Sestrin2 bound to GATOR2 after compound addition to immunoprecipitated FLAG-WDR24 complex
Assay type: binding
Conditions: 25 μM, % activity relative to leucine (25 μM = 100%)
Source text: This screening assay measured test compound activity in vitro on GATOR2/Sestrin2 complexes purified via immunoprecipitation of stably expressed FLAG-WDR24 from HEK293T cells. HEK293T cells (293 Ts) were engineered to stably express N-terminally tagged FLAG-WDR24 via transduction by lentivirus. Lentiviruses were produced by co-transfection of the lentiviral transfer vector pLJM60 with the […] into HEK-293T cells using the XTremeGene 9 transfection reagent (Roche Diagnostics). The media was changed 24 hours post-transfection to Dulbecco's Modified Eagle's media (DMEM) supplemented with 30% Inactivated Fetal Serum. The virus-containing supernatants were collected 48 and 72 hours after transfection and passed through a 0.45 μm filter to eliminate cells. Target cells in 6-well tissue culture plates were infected in media containing 8 μg/mL polybrene and spin infections were performed by centrifugation at 2,200 rpm for 1 hour. Twenty-four hours after infection, the virus was removed and the cells selected with the appropriate antibiotic. Cells were then grown in DMEM supplemented with 10% fetal bovine serum and antibiotics.
Seventy-two hours later, cells were placed in standard RPMI media formulated with no amino acids and supplemented with 5 mM Glucose (−AA RPMI, US Biological Life Sciences) for 1 hour then subsequently lysed in lysis buffer (40 mM HEPES, 1% Triton, 10 mM sodium β-glycerophosphate, 10 mM sodium pyrophosphate, 2.5 mM MgCl2 and protease inhibitors). To isolate the FLAG-WDR24/endogenous-Sestrin2 complex, crude lysate (equivalent to 2-4 mg of total protein) in a volume of 1 ml was subjected to immunoprecipitation with 30 μl of anti-flag resin (SIGMA) for 2 hours at 4° C., washed twice in cold lysis buffer plus 0.5M NaCl and resuspended in 1 ml of cold cytosolic buffer (40 mM HEPES pH 7.4, 140 mM KCl, 10 mM NaCl, 2.5 mM MgCl2, 0.1% TritonX-100). […] After the incubation period, samples were centrifuged to pellet the FLAG-WDR24/endogenous-Sestrin2 complex bound to the anti-flag resin, the supernatant was completely removed and resin was resuspended in SDS-PAGE sample buffer and boiled for 5 minutes. Samples were then processed by SDS-PAGE and western blots were performed with anti-FLAG (SIGMA) and anti-Sestrin2 (Cell Signaling Technology) antibodies as described in L. Chantranupong, et al., Cell Reports 9:1-8 (2014).
The resulting western blots were scanned and band intensities corresponding to Sestrin2 and FLAG-WDR24 were quantified using the LI-COR® imaging platform. To determine the amount of Sestrin2 bound to GATOR2 for each condition, the band intensity for Sestrin2 was normalized to the band intensity of FLAG-WDR24. […]
72 hours later, cells were placed in standard RPMI media formulated with no amino acids and supplemented with 5 mM Glucose (−AA RPMI, USBiological Life Sciences) for 1 hour then subsequently lysed in lysis buffer (40 mM HEPES, 1% Triton, 10 mM Sodium Beta-Glycerophosphate, 10 mM Sodium Pyrophosphate, 2.5 mM MgCl2 and protease inhibitors). The Flag-WDR24/endogenous-Sestrin2 complex was isolated as follows: crude lysate (equivalent to 2-4 mg of total protein) in a volume of 1 ml was subjected to immunoprecipitation (IP) with 30 μl of anti-flag resin (SIGMA) for 2 hours at 4° C., washed twice in cold lysis buffer plus 0.5M NaCl and resuspended in 1 ml of cold cytosolic buffer (40 mM HEPES pH 7.4, 140 mM KCl, 10 mM NaCl, 2.5 mM MgCl2, 0.1% TritonX-100). Compounds were then added to each sample at a given concentration of 25 μM and incubated with rotation at 4° C. for 30 minutes. After the incubation period, samples were centrifuged to pellet the Flag-WDR24/endogenous-Sestrin2 complex bound to the anti-flag resin, the supernatant was completely removed and resin was resuspended in sodium dodecyl sulfate-polyacrylamide gel electrophoresis (SDS-PAGE) sample buffer and boiled for 5 minutes. […]

Row | Structure (SMILES) | Activity of Leucine: % Activity
1 | CN[C@@H](CC(C)C)C(=O)O.Cl [Compound I-24] | A (a % activity relative to leucine of ≥40%)
2 | CC(C)C[C@H](N)C(=O)N(C(C)C)C(C)C [Compound I-150] | C (a % activity relative to leucine of between -40 and 40%)
3 | N[C@H](CCCC(F)(F)F)C(=O)O [Compound I-9, (R)-2-amino-6,6,6-trifluorohexanoic Acid] | C (a % activity relative to leucine of between -40 and 40%)
4 | N[C@H](CC(C(F)(F)F)C(F)(F)F)C(=O)O [Compound I-163] | A (a % activity relative to leucine of ≥40%)
5 | CC(C)C[C@H](NC(=O)c1ccccc1)C(=O)O [Compound I-15, (S)-2-benzamido-4-methylpentanoic Acid] | C (a % activity relative to leucine of between -40 and 40%)
6 | CSCC[C@H](N)C(=O)O [Compound I-30] | A (a % activity relative to leucine of ≥40%)
7 | CC(C)C[C@H](N)C(=O)O [Compound I-44] | A (a % activity relative to leucine of ≥40%)
8 | CC(C)C[C@H](N)C(=O)N(C)C1CCCC1 [Compound I-162] | C (a % activity relative to leucine of between -40 and 40%)
9 | Cl.N[C@H](CCCCC(F)(F)F)C(=O)O [Compound I-3, (R)-2-amino-7,7,7-trifluoroheptanoic Acid Hydrochloride] | B (a % activity relative to leucine of ≤−40%)
10 | CC(C)C[C@H](N)C(=O)NC(C)(C)C [Compound I-165] | A to C
11 | Cl.N[C@@H](CCCCC(F)(F)F)C(=O)O [Compound I-2, (S)-2-amino-7,7,7-trifluoroheptanoic Acid Hydrochloride] | B (a % activity relative to leucine of ≤−40%)
12 | N[C@@H](CC(F)(F)F)C(=O)O [Compound I-4, (S)-2-amino-4,4,4-trifluorobutanoic Acid] | C (a % activity relative to leucine of between -40 and 40%)
13 | CC(C)C[C@H](NC(=O)C1CCCCC1)C(=O)O [Compound I-22, (S)-2-(Cyclohexanecarboxamido)-4-methylpentanoic Acid] | C (a % activity relative to leucine of between -40 and 40%)
14 | CCCC[C@H](N)C(=O)O [Compound I-31] | A (a % activity relative to leucine of ≥40%)
15 | CN(C)[C@@H](CC(C)(C)C)C(=O)O [Compound I-159] | A (a % activity relative to leucine of ≥40%)
16 | CC(C)C[C@H](N)C(=O)N1CCCCC1 [Compound I-151] | C (a % activity relative to leucine of between -40 and 40%)
17 | CC(C)C[C@H](N)C(=O)NS(=O)(=O)c1ccccc1 [Compound I-148] | A (a % activity relative to leucine of ≥40%)

Row | Structure (SMILES) | Activity of Leucine: % Activity
18 | CC(C)C[C@H](N)C(=O)N(C)C [Compound I-149] | C (a % activity relative to leucine of between -40 and 40%)
19 | CC(C)C[C@H](Nc1ccccc1)C(=O)O [Compound I-26, (S)-4-methyl-2-(phenylamino)pentanoic Acid] | C (a % activity relative to leucine of between -40 and 40%)
20 | CC(C)CC(N)S(=O)(=O)O (stereo not shown) [Compound I-33] | C (a % activity relative to leucine of between -40 and 40%)
21 | CC[C@@H](C)[C@H](N)C(=O)O [Compound I-29] | A (a % activity relative to leucine of ≥40%)
22 | CC(C)C[C@H](NS(=O)(=O)Cc1ccccc1)C(=O)O [Compound I-18, (S)-4-methyl-2-(phenylmethylsulfonamido)pentanoic Acid] | C (a % activity relative to leucine of between -40 and 40%)
23 | N[C@@H](CCCC(F)(F)F)C(=O)O [Compound I-8, (S)-2-amino-6,6,6-trifluorohexanoic Acid] | B (a % activity relative to leucine of ≤−40%)
24 | CC(C[C@@H](N)C(=O)O)C(F)(F)F (stereo in doubt) [Compound I-146, (2R,4S)-2-amino-5,5,5-trifluoro-4-methylpentanoic Acid] | A (a % activity relative to leucine of ≥40%)
25 | CC(C)C[C@H](N)C(=O)N1CCCC1 [Compound I-154] | C (a % activity relative to leucine of between -40 and 40%)
26 | CC(C)C(F)(F)[C@H](N)C(=O)O [Compound I-46, (R)-2-amino-3,3-difluoro-4-methylpentanoic Acid] | C (a % activity relative to leucine of between -40 and 40%)
27 | CC(C)C[C@H](NC(=O)Cc1ccccc1)C(=O)O [Compound I-12, (S)-4-methyl-2-(2-phenylacetamido)pentanoic Acid] | C (a % activity relative to leucine of between -40 and 40%)
28 | CC(C)C[C@H](NC(C)C)C(=O)O [Compound I-13, (S)-2-(isopropylamino)-4-methylpentanoic Acid] | C (a % activity relative to leucine of between -40 and 40%)
29 | CC(C)CNC(=O)[C@@H](N)CC(C)C [Compound I-160] | C (a % activity relative to leucine of between -40 and 40%)
30 | CC(C)C[C@H](N)C(=O)NS(C)(=O)=O.Cl [Compound I-147, (S)-2-amino-4-methyl-N-(methylsulfonyl)pentanamide Hydrochloride] | A (a % activity relative to leucine of ≥40%)
31 | CC(C)C(F)(F)[C@@H](N)C(=O)O [Compound I-47, (S)-2-amino-3,3-difluoro-4-methylpentanoic Acid] | C (a % activity relative to leucine of between -40 and 40%)
32 | CNC(=O)[C@@H](N)CC(C)C [Compound I-21, (S)-2-amino-N,4-dimethylpentanamide] | C (a % activity relative to leucine of between -40 and 40%)
33 | CC(C)C[C@H](NS(=O)(=O)c1ccccc1)C(=O)O [Compound I-25, (S)-4-methyl-2-(phenylsulfonamido)pentanoic Acid] | C (a % activity relative to leucine of between -40 and 40%)
34 | N[C@H](CC(F)(F)F)C(=O)O [Compound I-5, (R)-2-amino-4,4,4-trifluorobutanoic Acid] | B (a % activity relative to leucine of ≤−40%)
